Values of other authors, collected in patent US20180327482A1, “METHODS AND COMPOSITIONS FOR THE TREATMENT OF HCMV” (priority 2013, published 2018).

Tested on: cells latently infected with HCMV
Conditions: Weekes et al., Science 340:199-202 (2013)

CC[C@]1(O)C[C@H]2CN(CCc3c([nH]c4ccccc34)[C@@](C(=O)OC)(c3cc4c(cc3OC)N(C=O)[C@H]3[C@@](O)(C(=O)OC)[C@H](OC(C)=O)[C@]5(CC)C=CCN6CC[C@]43[C@@H]65)C2)C1 [Vincristine]
Elimination of cells latently infected with HCMV: can be used therapeutically to eliminate cells latently infected with HCMV
